Laboratory results published in article PMC5983371 (Experimental eye research, 2018).
pEC50: −log10 of the molar value.

Target: rhodopsin (light-activated, metarhodopsin II) (Bos taurus, UniProt P02699)
Test: UV/Visible extra Meta II stabilization assay
Assay type: binding

Chain of rhodopsin (light-activated, metarhodopsin II) (P02699 whole entry): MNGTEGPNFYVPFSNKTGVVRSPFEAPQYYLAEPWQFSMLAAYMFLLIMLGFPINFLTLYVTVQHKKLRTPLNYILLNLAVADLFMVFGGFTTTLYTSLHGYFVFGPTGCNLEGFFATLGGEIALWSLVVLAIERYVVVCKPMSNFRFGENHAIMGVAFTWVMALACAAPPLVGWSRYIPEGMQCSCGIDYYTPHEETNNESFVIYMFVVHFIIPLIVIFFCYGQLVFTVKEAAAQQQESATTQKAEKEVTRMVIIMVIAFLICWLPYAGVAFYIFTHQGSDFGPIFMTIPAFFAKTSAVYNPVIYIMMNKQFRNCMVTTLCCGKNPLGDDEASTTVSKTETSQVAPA

pEC50: 3.35
Structure (SMILES): C[C@H](CCC(=O)NCCS(=O)(=O)O)[C@H]1CC[C@H]2[C@@H]3[C@@H](O)C[C@@H]4C[C@H](O)CC[C@]4(C)[C@H]3CC[C@]12C [TUDCA, Tauroursodeoxycholic acid]
